Source: patent US6211154A, “Ketoheterocyclic inhibitors of factor Xa” (COR Therapeutics, Inc., priority 1995, dated 2001)

Assay: Coagulation parameters (aPTT, PT) in blood samples of the rabbit venous thrombosis model
Type: in vivo
Conditions: steady state, mean±SD
Text: All measurements are an average of all samples after steady state administration of vehicle or (D)--Arg--G|y--Arg--thiazole. Values are expressed as mean±SD.

NC(N)=NCCCC(N)C(=O)NCC(=O)NC(CCCN=C(N)N)C(=O)c1nccs1 [H-D-Arg-Gly-Arg-thiazole, H--(D)--Arg--Gly--Arg--Thiazole]
PT fold increase over baseline (50 μg/kg + 1.28 μg/kg/min): 1.00 ± 0.00 fold
PT fold increase over baseline (75 μg/kg + 1.93 μg/kg/min): 1.00 ± 0.00 fold
PT fold increase over baseline (100 μg/kg + 2.57 μg/kg/min): 0.83 ± 0.00 fold
